Test results as given in US6130220A, “Sulfamide-metalloprotease inhibitors” (Syntex (USA) Inc., priority 1999, dated 2000).

Experiments:
[1] = tested on: TNF-α release from Human Monomac 6 cells; assay: Inhibition of TNF release in vitro, Monomac 6 cells, LPS/PMA; format: cell-based; conditions: 2 h; for inhibition at 10 µM: MONO-MAC-6, 10 μM, read-out: TNF-α % inhibition, Conc. 10 μM; for inhibition at 2 µM: MONO-MAC-6, 2 μM, read-out: TNF-α % inhibition, Conc. 2 μM
Procedure: The activity of compounds of this invention in inhibiting the TNF release was determined, using the a minor modification of the method described in Pradines-Figueres, A. and Raetz, C. R. H., J. Biol. Chem., 267 (32), 23261, (1992).
Human Monomac 6 cells (Ziegler-Heitbrock, H. W. L., et al., Int. J. Cancer, 41, 456, (1988)) were cultured at 37° C. in RPMI 1640 medium containing 10% fetal calf serum to a density of 1×10^5 cells/ml. 0.23 ml of these cells were placed in each well of a tissue culture plate and the cells were incubated for 15 min. The test compounds were dissolved in above mentioned medium and added and the incubation was continued for an additional 15 min. 10 μl of an lipopolysaccharide/phorbol-12-myristate-13-acetate (LPS/PMA) mixture was added such that the final concentration of lipopolysaccharide was 10 ng/ml and the final concentration of phorbol-12-myristate-13-acetate was 30 ng/ml. The cells were incubated for 2 h after which the plate was centrifuged and the medium was removed and analyzed for TNF content. The analysis was performed using a TNF Quantikine® Inmunoassay (R & D Systems, Minneapolis, Minn. 55413) by following the manufacturer's protocol.
The TNF-α inhibitory activity of test materials, i.e., the measure of the TNF-α content in the test group relative to the vehicle treated group (control group) was: […]

[2] = molecular target: Collagenase-III; assay: MMP enzymatic assay, hydrolysis of MCA-Pro-Leu-Gly-Leu-DPA-Ala-Arg-NH2, Collagenase-III; format: biochemical; conditions: 37° C., pH 7.5, 2.5% DMSO
Procedure: The propeptide and catalytic domain portion of human collagenase-3 was expressed in E. Coli as an N-terminal fusion protein with ubiquitin. After purification, the catalytic domain was released by treatment with 1 mM APMA for 1 hour at 37° C., and then purified by zinc chelate chromatography.
Rat collagenase-3 was purified in active form from the culture media of uterine smooth muscle cells as described in Roswit, W. T. et al., Arch. Biochem. Biophys., 225, 285-295 (1983).
The matrix metalloprotease inhibitory activity of compounds of this invention in vitro was determined based on the hydrolysis of MCA-Pro-Leu-Gly-Leu-DPA-Ala-Arg-NH2 (Bachem, Inc.) at 37° C. as described in Knight, C. G., et al., FEBS Lett., 296, 263-266 (1992).
The matrix metalloprotease enzyme was diluted with assay buffer (50 mM Tricine pH 7.5, 200 mM NaCl, 10 mM CaCl2, and 0.005% Brij-35) containing 10 μmole of above substrate dissolved in DMSO. Compounds of the invention dissolved in DMSO or only DMSO (control samples) were added such that the final DMSO concentration in all assays was 2.5%. The fluorescence changes were monitored with a Perkin-Elmer LS-50B flourimeter using an excitation wavelength of 328 nm and an emission wavelength of 393 nm.

[3] = tested on: TNF-α; assay: Inhibition of LPS induced TNF-α production in mice in vivo; conditions: s.c. compound, LPS 50 μg/mouse i.p. 1 h later, blood after 1.5 h
Procedure: The activity of compounds of this invention in inhibiting the TNF-α release was determined, using a minor modification of the methods described in Zanetti, G.; Heumann, D., et. al., "Cytokine production after intravenous or peritoneal Gram-negative bacterial challenge in mice" J. Immunol., 148, 1890, (1992) and Sekut, L., Menius, J. A., et. al., "Evaluation if the significance of elevated levels of systemic and localized tumor necrosis factor in different animal models of inflammation" J. Lab. Clin. Med., 124, 813, (1994).
Female Balbic mice were anesthetized and injected subcutaneously with the test compounds dissolved in CMC vehicle or hydroxypropylmethyl cellulose based vehicle. Control animals received only the vehicle. After 1 h, LPS (50 μg/mouse, Sigma #13129, Sigma Chemical Co., St. Louis, Mo.) was injected intraperitoneally. After 1.5 h, blood was collected from the retro-rbital plexus region of the animals in a miicrotainer serum separator tube (Becton Dickinson, Cat. No. #5960, Becton Dickinson & Co., Franklin Lakes, N.J.). The sera was separated and the amount of TNF-α was determined using the EM-TNFA® kit (Endogen, Woburn, Mass.) by following the manufacturer's protocol.

IC50 [2] [nM]	Compound	inhibition at 10 µM [1] [%]	TNF-α % inhibition [3] [%]	inhibition at 2 µM [1] [%]
0.92	O=C(NO)[C@H](CSCc1ccccc1)NS(=O)(=O)N1CCN(c2ccc(Cl)cn2)CC1 [compound 102]	56	–	–
–	C[C@@H](NS(=O)(=O)N1CCC(c2cccc3ccccc23)CC1)C(=O)NO [compound 216]	–	41	–
0.063	O=C(NO)C1CCCCN1S(=O)(=O)N1CCC(c2noc3cc(F)ccc23)CC1 (racemic) [compound 286, N-hydroxy-1-[4-(6-fluorobenzisoxazol-3-yl)piperidine-1-sulfonyl]piperidine-2-(RS)-carboxamide]	–	–	–
0.19	CC(=O)N1CCN(S(=O)(=O)N2CCC(C(=O)c3ccc(Cl)cc3)CC2)C(C(=O)NO)C1 (racemic) [compound 255, N-hydroxy-4-acetyl-1-[4-(4-chlorobenzoyl)piperidine-1-sulfonyl]piperazine-2-(RS)-carboxamide]	97	–	–
181	O=C(NO)C1CCCCN1S(=O)(=O)N1CCC(c2c[nH]c3ccc(F)cc23)CC1 (racemic) [compound 254, N-hydroxy-1-[4-(5-fluoroindol-3-yl)piperidine-1-sulfonyl]piperidine-2-(RS)-carboxamide]	94	–	–
–	Cc1cc(C2=CCN(S(=O)(=O)N3CCN(C(=O)OCc4ccccc4)CC3C(=O)NO)CC2)ccc1F (racemic) [compound 381, N-hydroxy-4-benzyloxycarbonyl-1-[4-(4-fluoro-3-methylphenyl)-1,2,3,6-tetrahydropyridine-1-sulfonyl]piperazine-2-(RS)-carboxamide]	–	–	10
–	Cc1cc(C2=CCN(S(=O)(=O)N3CCN(C(=O)OC(C)(C)C)CC3C(=O)NO)CC2)ccc1F (racemic) [compound 384]	96	–	–
–	CN(C)C(=O)N1CCN(S(=O)(=O)N2CCC(c3ccc(F)cc3)CC2)[C@@H](C(=O)NO)C1 [compound 313, N-hydroxy-4-(N,N-dimethylaminocarbonyl)-1-[4-(4-fluorophenyl)piperidine-1-sulfonyl]piperazine-2-(R)-carboxamide]	–	–	73
–	N#Cc1ccc2[nH]cc(C3CCN(S(=O)(=O)N4CCN(C(=O)N5CCOCC5)C[C@@H]4C(=O)NO)CC3)c2c1 [compound 321, N-hydroxy-4-(morpholin-4-ylcarbonyl)-1-[4-(5-cyanoindol-3-yl)piperdine-1-sulfonyl]piperazine-2-(R)-carboxamide]	–	50	93
18	CC(C)[C@@H](NS(=O)(=O)N1CCC(c2nc(-c3ccccc3)c[nH]2)CC1)C(=O)NO [compound 133, N-hydroxy-2-(R)-{[4-(4-phenylirnidazol-2-yl)piperidine-1-sulfonyl]amino}-3-methylbutyramide]	32	–	–
0.1	CN(C)S(=O)(=O)N1CCN(S(=O)(=O)N2CCC(C(=O)c3ccc(Cl)cc3)CC2)[C@@H](C(=O)NO)C1 [compound 315, N-hydroxy-1-[4-(4-chlorobenzoyl)piperidine-1-sulfonyl]-4-(N,N-dimethylaminosulfonyl)piperazine-2-(R)-carboxamide]	–	–	86
–	O=C(NO)C(NS(=O)(=O)N1CC=C(c2ccc(Cl)cc2)CC1)c1ccc(F)cc1 (centres unmarked) [compound 409]	86	–	–
660	CC(C)[C@H](C(=O)NO)N(Cc1ccccc1)S(=O)(=O)N1CCCCC1 [compound 1, N-hydroxy-2-(R)-[benzyl-(piperidine-1-sulfonyl)amino]-3-methylbutyramide]	–	–	–
–	O=C(NO)[C@H]1CCCCN1S(=O)(=O)N1CCCC1 [compound 232, N-hydroxy-1-(pyrrolidine-1-sulfonyl)piperidine-2-(R)-carboxamide]	–	73	–
6.6	O=C(NO)C1(NS(=O)(=O)N2CCN(c3ccc(Cl)cc3)CC2)CCCCC1 [compound 345, N-hydroxy-1-{[4-(4-chlorophenyl)piperazine-1-sulfonyl]amino}-cyclohexane-1-carboxamide]	–	–	–
1.6	C[C@@H](NS(=O)(=O)N1CCN(C(=O)Nc2ccc(Cl)cc2)CC1)C(=O)NO [compound 177, N-hydroxy-2-(R)-{[4-(4-chlorophenylaminocarbonyl)piperazine-1-sulfonyl]amino}propionamide]	< 15	–	–

IC50 [2] [nM]	Compound	inhibition at 10 µM [1] [%]	TNF-α % inhibition [3] [%]	inhibition at 2 µM [1] [%]
33	O=C(NO)C1CCCCN1S(=O)(=O)N1CCC(c2c[nH]c3cc(Cl)ccc23)CC1 (racemic) [compound 256, N-hydroxy-1-[4-(6-chloroindol-3-yl)piperidine-1-sulfonyl]piperidine-2-(RS)-carboxamide]	79	–	–
–	O=C(NO)C1CCCCN1S(=O)(=O)N1CCCCC1 (racemic) [compound 233]	–	46	–
2.1	O=C(NO)C1(NS(=O)(=O)N2CCN(c3ccc(Cl)cn3)CC2)CCCCC1 [compound 342]	–	–	–
–	O=C(NO)[C@H]1CCCCN1S(=O)(=O)N1CCc2c([nH]c3ccccc23)C1 [compound 314, N-hydroxy-1-[1,2,3,4-tetrahydro-beta-carboline-2-sulfonyl]piperidine-2-(R)-carboxamide]	–	–	72
0.2	CN(C)C(=O)N1CCN(S(=O)(=O)N2CCC(C(=O)c3ccc(Cl)cc3)CC2)[C@@H](C(=O)NO)C1 [compound 298, N-hydroxy-1-[4-(4-chlorobenzoyl)piperidine-1-sulfonyl]-4-(N,N-dimethylaminocarbonyl)piperazine-2-(R)-carboxamide]	–	–	70
–	O=C(NO)C1CCCCN1S(=O)(=O)N1CCN(c2ccc(Cl)cc2)CC1 (racemic) [compound 234, N-hydroxy-1-[4-(4-chlorophenyl)piperazine-1-sulfonyl]piperidine-2-(RS)-carboxamide]	–	46	–
3400	C[C@@H](NS(=O)(=O)N1CCN(c2ccc(Cl)cc2)CC1)C(=O)O [compound 414, 2-(R)-{[4-(4-chlorophenyl)piperazino-1-sulfonyl]amino}propionic acid]	–	–	–
890	CN(Cc1ccccc1)S(=O)(=O)N(CC(=O)O)Cc1ccccc1 [compound 430, 2-[benzyl-(benzylmethylaminosulfonyl)amino]acetic acid]	–	–	–
56	CN(Cc1ccccc1)S(=O)(=O)N(CC(=O)NO)Cc1ccccc1 [compound 355]	< 15	–	–
21	COCCN(CC(=O)NO)S(=O)(=O)N1CCN(c2ccc(Cl)cc2)CC1 [compound 16]	< 15	–	–
0.59	CC(C)[C@H](C(=O)NO)N(CCCc1cccnc1)S(=O)(=O)N1CCC(Oc2ccc(Br)cc2)CC1 [compound 105]	20	–	–
–	CC(C)[C@@H](NS(=O)(=O)N1CCC(C(=O)c2ccc(Cl)cc2)CC1)C(=O)NO [compound 134]	–	42	–
–	O=C(NO)C1CCCCN1S(=O)(=O)N1CC=C(c2ccc(Cl)cc2)CC1 (racemic) [compound 375, N-hydroxy-1-[4-(4-chlorophenyl)-1,2,3,6-tetrahydropyridine-1-sulfonyl]piperidine-2-(RS)-carboxamide]	–	–	85
0.19	C[C@@H](NS(=O)(=O)N1CC=C(c2ccc(Cl)cc2)CC1)C(=O)NO [compound 401]	97	–	–
6500	C[C@H](C(=O)O)N(Cc1ccccc1)S(=O)(=O)NCc1ccccc1 [compound 431]	–	–	–
